Results from patent US12156893B2, “Oral composition comprising lactic acid bacteria for regulating immune responses and methods related thereto” (The Regents of the University of California, priority 2016, dated 2024).

Tested on: NK cells
Experiment: Production of cytokines, growth factors and chemokines by NK cells treated with bacterial strains (Bio-Plex 27-plex)
Assay type: cell-based, human
Parameters: unit not given here
Experimental: Different strains of probiotic bacteria were tested for their ability to induce IFN-g as well as a number of important cytokines, chemokines and growth factors (Table 1). To assess the levels of each strain used in the combination we used an activation index established in the lab for the NK cells which consisted of the use of a specific ratio of several important cytokines and chemokines that prevented auto-immunity while enhancing significant activation of NK cells under pathologic conditions. Therefore, the strains were selected to: 1) provide regulated activation of NK cells when no activation of NK cells is desired; 2) when activated by cytokines and/or cross-linking of the important receptors which occurs during functional activation of NK cells in cancer is to induce maximal activation of NK cells; and 3) provide diversity for gut microflora. These criteria allow us to use bacteria to regulate the gut mucosal immunity in such a way that we will only increase NK activation when needed during infections or malignancies. In other words when there is no need for function of NK cells bacteria will regulate NK function to not induce inflammation; however, during need which occurs under the pathological conditions NK cells are triggered to function at the maximal levels. Such coordinated regulation of NK cell function should be effective in halting unwanted inflammation while providing effective and maximal immunity during disease.
Written informed consents, approved by UCLA Institutional Review Board (IRB), were obtained from healthy blood donors, and all procedures were approved by the UCLA-IRB. Peripheral blood was separated using Ficoll-Hypaque centrifugation, after which the white, cloudy layer, containing peripheral blood mononuclear cells (PBMC), was harvested, washed and re-suspended in RPMI 1640 (Invitrogen by Life Technologies, CA) supplemented with 10% FBS and plated on plastic tissue culture dishes. After 1-2 hours of incubation, non-adherent, human peripheral blood lymphocytes (PBL) were collected. NK cells were negatively selected and isolated from PBLs using the EasySep® Human NK cell enrichment kit purchased from Stem Cell Technologies (Vancouver, BC, Canada). Isolated NK cells were stained with anti-CD16 antibody, to measure NK cell purity using flow cytometric analysis. The isolated NK cell population was greater than 90% purity. Purified NK cells were cultured in RPMI Medium 1640 supplemented with 10% FBS (Gemini Bio-Products, CA), 1% antibiotic antimycotic, 1% sodium pyruvate, and 1% MEM non-essential amino acids (Invitrogen, Life Technologies, CA).
Purified NK cells from healthy donors were left untreated or treated with IL-2 (1000 units/ml) or the combination of anti-CD16 mAb (3 μg/ml) and IL-2 (1000 units/ml) in the presence or absence of bacterial strains at 1:5 ratio (NK cell: bacteria) for 12-18 hours. Afterwards, the levels of cytokines, growth factors and chemokines were determined using Bio-Plex Pro Human Cytokine 27-plex Assay Kit.

[1] = Treatment NK (no activation), bacteria 1:5 NK cell:bacteria, 12-18 hours
[2] = Treatment NK + IL-2 (1000 units/ml), bacteria 1:5, 12-18 hours
[3] = Treatment NK + IL-2 + anti-CD16 mAb (3 μg/ml), bacteria 1:5, 12-18 hours

Substance: Lactobacillus acidophilus [L. acidophilus]
- Eotaxin [1]: 16
- G-CSF [1]: 141
- GM-CSF [1]: 110
- IFN-γ [1]: 366
- IL-1B [1]: 819
- IL-1ra [1]: 181
- IL-6 [1]: 10357
- IL-8 [1]: 6879
- IL-10 [1]: 62
- IL-12p70 [1]: 299
- IL-13 [1]: 5
- IL-17 [1]: 63
- IP-10 [1]: 77
- MCP-1 [1]: 400
- RANTES [1]: 2553
- TNF-α [1]: 6858
- Eotaxin [2]: 21
- G-CSF [2]: 89
- GM-CSF [2]: 127
- IFN-γ [2]: 1329
- IL-1B [2]: 335
- IL-1ra [2]: 487
- IL-6 [2]: 2095
- IL-8 [2]: 1116
- IL-10 [2]: 17
- IL-12p70 [2]: 136
- IL-13 [2]: 8
- IL-17 [2]: 63
- IP-10 [2]: 51
- MCP-1 [2]: 112
- RANTES [2]: 2353
- TNF-α [2]: 1151
- Eotaxin [3]: 31
- G-CSF [3]: 102
- GM-CSF [3]: 199
- IFN-γ [3]: 2715
- IL-1B [3]: 654
- IL-1ra [3]: 493
- IL-6 [3]: 3684
- IL-8 [3]: 2004
- IL-10 [3]: 24
- IL-12p70 [3]: 155
- IL-13 [3]: 23
- IL-17 [3]: 73
- IP-10 [3]: 69
- MCP-1 [3]: 289
- RANTES [3]: 3999
- TNF-α [3]: 5663

Substance: Streptococcus thermophilus [S. thermophilus]
- Eotaxin [1]: 40
- G-CSF [1]: 149
- GM-CSF [1]: 131
- IFN-γ [1]: 785
- IL-1B [1]: 1381
- IL-1ra [1]: 229
- IL-6 [1]: 10222
- IL-8 [1]: 3326
- IL-10 [1]: 63
- IL-12p70 [1]: 515
- IL-13 [1]: 9
- IL-17 [1]: 74
- IP-10 [1]: 64
- MCP-1 [1]: 502
- RANTES [1]: 2580
- TNF-α [1]: 18892
- Eotaxin [2]: 21
- G-CSF [2]: 87
- GM-CSF [2]: 124
- IFN-γ [2]: 1188
- IL-1B [2]: 390
- IL-1ra [2]: 465
- IL-6 [2]: 1773
- IL-8 [2]: 1341
- IL-10 [2]: 17
- IL-12p70 [2]: 132
- IL-13 [2]: 9
- IL-17 [2]: 65
- IP-10 [2]: 45
- MCP-1 [2]: 169
- RANTES [2]: 2197
- TNF-α [2]: 2413
- Eotaxin [3]: 29
- G-CSF [3]: 101
- GM-CSF [3]: 177
- IFN-γ [3]: 2594
- IL-1B [3]: 642
- IL-1ra [3]: 434
- IL-6 [3]: 2475
- IL-8 [3]: 1841
- IL-10 [3]: 23
- IL-12p70 [3]: 163
- IL-13 [3]: 15
- IL-17 [3]: 57
- IP-10 [3]: 58
- MCP-1 [3]: 332
- RANTES [3]: 2097
- TNF-α [3]: 4917

Substance: Bifidobacterium breve [B. breve]
- Eotaxin [1]: 15
- G-CSF [1]: 363
- GM-CSF [1]: 101
- IFN-γ [1]: 99
- IL-1B [1]: 200
- IL-1ra [1]: 196
- IL-6 [1]: 9726
- IL-8 [1]: 3975
- IL-10 [1]: 127
- IL-12p70 [1]: 10
- IL-13 [1]: 5
- IL-17 [1]: 53
- IP-10 [1]: 32
- MCP-1 [1]: 265
- RANTES [1]: 1662
- TNF-α [1]: 2904
- Eotaxin [2]: 22
- G-CSF [2]: 138
- GM-CSF [2]: 127
- IFN-γ [2]: 284
- IL-1B [2]: 165
- IL-1ra [2]: 470
- IL-6 [2]: 3402
- IL-8 [2]: 1912
- IL-10 [2]: 36
- IL-12p70 [2]: 21
- IL-13 [2]: 9
- IL-17 [2]: 57
- IP-10 [2]: 35
- MCP-1 [2]: 72
- RANTES [2]: 1988
- TNF-α [2]: 1868
- Eotaxin [3]: 29
- G-CSF [3]: 289
- GM-CSF [3]: 180
- IFN-γ [3]: 844
- IL-1B [3]: 421
- IL-1ra [3]: 565
- IL-6 [3]: 7261
- IL-8 [3]: 4929
- IL-10 [3]: 68
- IL-12p70 [3]: 26
- IL-13 [3]: 28
- IL-17 [3]: 72
- IP-10 [3]: 55
- MCP-1 [3]: 153
- RANTES [3]: 3934
- TNF-α [3]: 1498

Substance: Lactobacillus paracasei [L. paracasei]
- Eotaxin [1]: 4
- G-CSF [1]: 106
- GM-CSF [1]: 99
- IFN-γ [1]: 186
- IL-1B [1]: 320
- IL-1ra [1]: 129
- IL-6 [1]: 3029
- IL-8 [1]: 3716
- IL-10 [1]: 70
- IL-12p70 [1]: 70
- IL-13 [1]: 8
- IL-17 [1]: 40
- IP-10 [1]: 53
- MCP-1 [1]: 506
- RANTES [1]: 1069
- TNF-α [1]: 3809
- Eotaxin [2]: 27
- G-CSF [2]: 138
- GM-CSF [2]: 157
- IFN-γ [2]: 2112
- IL-1B [2]: 523
- IL-1ra [2]: 551
- IL-6 [2]: 7285
- IL-8 [2]: 3983
- IL-10 [2]: 47
- IL-12p70 [2]: 125
- IL-13 [2]: 15
- IL-17 [2]: 63
- IP-10 [2]: 90
- MCP-1 [2]: 337
- RANTES [2]: 6468
- TNF-α [2]: 6776
- Eotaxin [3]: 40
- G-CSF [3]: 153
- GM-CSF [3]: 215
- IFN-γ [3]: 2145
- IL-1B [3]: 721
- IL-1ra [3]: 573
- IL-6 [3]: 6867
- IL-8 [3]: 6385
- IL-10 [3]: 43
- IL-12p70 [3]: 123
- IL-13 [3]: 27
- IL-17 [3]: 90
- IP-10 [3]: 92
- MCP-1 [3]: 427
- RANTES [3]: >22609
- TNF-α [3]: 10128

Substance: Bifidobacterium longum [B. longum]
- Eotaxin [1]: 32
- G-CSF [1]: 938
- GM-CSF [1]: 131
- IFN-γ [1]: 158
- IL-1B [1]: 813
- IL-1ra [1]: 312
- IL-6 [1]: 60895
- IL-8 [1]: 9507
- IL-10 [1]: 298
- IL-12p70 [1]: 42
- IL-13 [1]: 9
- IL-17 [1]: 74
- IP-10 [1]: 38
- MCP-1 [1]: 80
- RANTES [1]: 2325
- TNF-α [1]: 5880
- Eotaxin [2]: 33
- G-CSF [2]: 244
- GM-CSF [2]: 135
- IFN-γ [2]: 671
- IL-1B [2]: 408
- IL-1ra [2]: 472
- IL-6 [2]: 7287
- IL-8 [2]: 2195
- IL-10 [2]: 52
- IL-12p70 [2]: 47
- IL-13 [2]: 11
- IL-17 [2]: 73
- IP-10 [2]: 46
- MCP-1 [2]: 33
- RANTES [2]: 2189
- TNF-α [2]: 2896
- Eotaxin [3]: 28
- G-CSF [3]: 386
- GM-CSF [3]: 158
- IFN-γ [3]: 1282
- IL-1B [3]: 498
- IL-1ra [3]: 461
- IL-6 [3]: 2916
- IL-8 [3]: 2906
- IL-10 [3]: 68
- IL-12p70 [3]: 33
- IL-13 [3]: 19
- IL-17 [3]: 69
- IP-10 [3]: 42
- MCP-1 [3]: 75
- RANTES [3]: 1088
- TNF-α [3]: 4240

Substance: Bifidobacterium infantis [B. infantis]
- Eotaxin [1]: 18
- G-CSF [1]: 145
- GM-CSF [1]: 123
- IFN-γ [1]: 275
- IL-1B [1]: 249
- IL-1ra [1]: 179
- IL-6 [1]: 6136
- IL-8 [1]: 4265
- IL-10 [1]: 55
- IL-12p70 [1]: 66
- IL-13 [1]: 1
- IL-17 [1]: 56
- IP-10 [1]: 57
- MCP-1 [1]: 451
- RANTES [1]: 2234
- TNF-α [1]: 5728
- Eotaxin [2]: 19
- G-CSF [2]: 190
- GM-CSF [2]: 163
- IFN-γ [2]: 3073
- IL-1B [2]: 422
- IL-1ra [2]: 459
- IL-6 [2]: 6618
- IL-8 [2]: 5090
- IL-10 [2]: 41
- IL-12p70 [2]: 115
- IL-13 [2]: 19
- IL-17 [2]: 72
- IP-10 [2]: 113
- MCP-1 [2]: 382
- RANTES [2]: 3225
- TNF-α [2]: 5103
- Eotaxin [3]: 32
- G-CSF [3]: 151
- GM-CSF [3]: 178
- IFN-γ [3]: 1250
- IL-1B [3]: 365
- IL-1ra [3]: 434
- IL-6 [3]: 3927
- IL-8 [3]: 3557
- IL-10 [3]: 34
- IL-12p70 [3]: 47
- IL-13 [3]: 22
- IL-17 [3]: 65
- IP-10 [3]: 88
- MCP-1 [3]: 360
- RANTES [3]: 2646
- TNF-α [3]: 5287
